Experimental data: patent US5935955A, “Pharmaceutical piperazine compounds” (Xenova Limited, priority 1994, dated 1999)
pIC50: −log10 of the molar value.

Tests used:
[1] = system: AR 1.0 cells; experiment: Potentiation of doxorubicin toxicity (fixed doxorubicin 0.86 μM, proliferation, sulphorhodamine B); type: cell-based, mouse; settings: with doxorubicin 0.86 μM; four day incubation; 5760 min; read-out: Toxicity with cytotoxic agent (IC50)
Source text: Compounds of formula (I) were examined for their ability to potentiate the toxicity of doxorubicin in AR 1.0 cells.

[2] = system: AR 1.0 cells; experiment: Potentiation index for doxorubicin (doxorubicin titration with fixed concentration of compound); type: cell-based, mouse
Experimental: The EMT6 mouse mammary carcinoma cell line and the MDR resistant sublime AR 1.0 were cultured in RPMI 1640 medium containing 10% foetal calf serum and 2 mM glutamine at 37° C. in 5% CO2. Cells were passaged between 1 in 200 and 1 in 2000 in the case of the parental cell line and between 1 in 20 and 1 in 200 in the case of the MDR resistant subline, after trypsinisation (0.25% trypsin, 0.2 gl^-1, EDTA).
Cells were cultured for four days with a titration of doxorubicin (0.01 nm-50 μM) in the presence of a fixed concentration of each compound. Proliferation was quantified as described by Skehan et. al, loc cit. The IC50 (concentration required to reduce proliferation to 50% of the untreated controls) for doxorubicin alone and with each compound were derived and used to calculate the potentiation index (PI): [formula]

[3] = system: AR 1.0 cells; experiment: Compound toxicity (proliferation, sulphorhodamine B); type: cell-based; settings: Mus musculus, 96 h; compound alone; AR 1.0 cells; four day incubation; read-out: Compound toxicity (IC50)
[4] = system: AR 1.0 cells; experiment: Drug accumulation assay (tritiated daunorubicin); type: cell-based; settings: Mus musculus; daunorubicin 2 μM; 1 hr at 37° C.; read-out: IC50 accumulation
Experimental: AR 1.0 cells were seeded into 96 well opaque culture plates (Canberra Packard). The assay medium contained a mixture of tritiated Daunorubicin (DNR), a cytotoxic agent, and unlabelled DNR (0.3 μCi/ml; 2 μM). Compounds of formula I were serially diluted in assay medium over a range of concentrations from 5 nM to 100 μM. The cells were incubated at 37° C. for 1 hr before washing and determination of cell associated radioactivity. Results were expressed as % maximum accumulation where 100% accumulation is that observed in the presence of the known RMA verapamil at 100 μM. Where possible an IC50 was determined.

[5] = system: MDR cells; settings: in vitro and in vivo; Cancer Res., 41, 1967-1972 (1981); cited from earlier work
[6] = RMA at 1 μM, doxorubicin, four days

| Compound | pIC50 [1] | Potentiation index [2, 6] | pIC50 [3] | pIC50 [4] | Potentiation index ([2]; measured at 0.01 μM) | Potentiation index ([2]; measured at 0.03 μM) | Potentiation index ([2]; measured at 0.1 μM) | Potentiation index ([2]; measured at 0.3 μM) | sensitisation of MDR cells to Vinca alkaloids [5] |
| --- | --- | --- | --- | --- | --- | --- | --- | --- | --- |
| COc1cc2c(cc1OC)CN(CCc1ccc(COc3ccc(/C=c4\[nH]c(=O)/c(=C/c5ccccc5)n(C)c4=O)cc3)cc1)CC2 [Compound 9176, (3Z,6Z)-6-Benzylidene-3-(4-(4-(2-(6,7-dimethoxy-1,2,3,4-tetrahydro-2-isoquinolyl)ethyl)benzyloxy)benzylidene)-1-methyl-2,5-piperazinedione] | 6.70 | 300.0 | 5.00 | 6.00 | – | – | – | – | – |
| COc1cc2c(cc1OC)CN(CCc1ccc(COc3cccc(/C=c4\[nH]c(=O)/c(=C/c5ccccc5)n(C)c4=O)c3)cc1)CC2 [Compound 9177, (3Z,6Z)-6-Benzylidene-3-(3-(4-(2-(6,7-dimethoxy-1,2,3,4-tetrahydro-2-isoquinolyl)ethyl)benzyloxy)benzylidene)-1-methyl-2,5-piperazinedione] | 6.30 | 75.0 | 4.82 | 5.76 | – | – | – | – | – |
| COc1cc2c(cc1OC)CN(CCc1ccc(C(=O)Nc3ccc(/C=c4\[nH]c(=O)/c(=C/c5ccccc5)n(C)c4=O)cc3)cc1)CC2 [Compound 9190, N-(4-((3Z,6Z)-6-Benzylidene-1-methyl-2,5-dioxo-3-piperazinylidene)methylphenyl)-4-(2-(6,7-dimethoxy-1,2,3,4-tetrahydro-2-isoquinolyl)ethyl)benzamide] | 7.30 | – | 4.82 | 6.46 | 1.4 | 3.3 | 10.0 | 75.0 | – |
| COc1ccc(CCN(C)CCCC(C#N)(c2ccc(OC)c(OC)c2)C(C)C)cc1OC (stereo not shown) [Verapamil] | – | – | – | – | – | – | – | – | shown to sensitise MDR cells to Vinca alkaloids in vitro and in vivo |
